We go through 24 compounds from ChEMBL document CHEMBL1136244, “Synthesis and structure-activity relationships of 1-arylmethyl-3-(2-aminopropyl)-5-aryl-6-methyluracils as potent GnRH receptor antagonists” (Bioorg Med Chem Lett, 2003).

The target in test [1] is T1, Gonadotropin-releasing hormone receptor (Homo sapiens, UniProt P30968).
T1 sequence (P30968 whole entry): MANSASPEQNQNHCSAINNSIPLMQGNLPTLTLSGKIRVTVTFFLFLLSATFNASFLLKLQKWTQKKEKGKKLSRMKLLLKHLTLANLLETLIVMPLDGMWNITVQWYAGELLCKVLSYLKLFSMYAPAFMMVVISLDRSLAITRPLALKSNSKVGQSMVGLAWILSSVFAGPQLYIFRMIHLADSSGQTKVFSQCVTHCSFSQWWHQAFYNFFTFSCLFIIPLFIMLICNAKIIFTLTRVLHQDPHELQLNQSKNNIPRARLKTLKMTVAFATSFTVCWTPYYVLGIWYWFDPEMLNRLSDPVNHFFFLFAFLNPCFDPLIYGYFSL
The experiment in a line: Ability to inhibit des-Gly10[125I]Tyr5,DLeu6,NMeLeu7, Pro9-NEt]-GnRH radioligand binding to the cloned human gonadotropin-releasing hormone receptor stably expressed in HEK293 cells. It is filed as cell-based.

The nature of test [2]: Inhibition of GnRH-stimulated [Ca2+] influx. The test is classed as functional.

A word on the Ki: it is the equilibrium dissociation constant of an inhibitor or competing ligand from its target. Low values mean tighter binding, high ones weaker binding. `COc1cccc(-c2c(C)n(Cc3c(F)cccc3F)c(=O)n(C[C@@H](C)NCc3ccccc3)c2=O)c1` displayed a Ki in test [1] of 130 nM. For `COc1cccc(-c2c(C)n(Cc3c(F)cccc3F)c(=O)n(C[C@H](C)NCc3ccccc3)c2=O)c1`, in test [1], affinity was put at a Ki of 140 nM. As for `COc1cccc(-c2c(C)n(Cc3c(F)cccc3F)c(=O)n(C[C@@H](C)NCc3ccccn3)c2=O)c1`, the affinity in test [1], expressed as Ki, was 15 nM. This Ki lies about 9.3-fold lower than the previous one.

The compound `COc1cccc(-c2c(C)n(Cc3c(F)cccc3F)c(=O)n(CC(C)N(C)CCc3ccccn3)c2=O)c1` (centres undefined) came in with a Ki in test [1] of 12 nM. On to `COc1cccc(-c2c(C)n(Cc3c(F)cccc3F)c(=O)n(CC(C)NCc3ccccn3)c2=O)c1` (centres undefined), for which the Ki in test [1] worked out at 53 nM. The same measure, in the same setting: as for `COc1cccc(-c2c(C)n(Cc3c(F)cccc3F)c(=O)n(C[C@H]3CCCN3Cc3ccccn3)c2=O)c1`, the figure is 32 nM; as for `COc1cccc(-c2c(C)n(Cc3c(F)cccc3F)c(=O)n(CC(C)N(C)Cc3ccccc3)c2=O)c1` (centres undefined), 310 nM; as for `COc1cccc(-c2c(C)n(Cc3c(F)cccc3F)c(=O)n(CC(C)NCCc3ccccn3)c2=O)c1` (centres undefined), 170 nM.

Take `COc1cccc(-c2c(C)n(Cc3c(F)cccc3F)c(=O)n(C[C@H](C)N(C)Cc3ccccc3)c2=O)c1`: the affinity in test [1], expressed as Ki, was 250 nM. The same measure, in the same setting: as for `COc1cccc(-c2c(C)n(Cc3c(F)cccc3F)c(=O)n(CCNCc3ccccn3)c2=O)c1`, the figure is 550 nM; as for `COc1cccc(-c2c(C)n(Cc3c(F)cccc3F)c(=O)n(CC(C)N(C)CCCOCC(C)C)c2=O)c1` (centres undefined), 240 nM. Compound `COc1cccc(-c2c(C)n(Cc3c(F)cccc3F)c(=O)n(CC(C)NCc3ccccc3)c2=O)c1` (centres undefined) yielded a Ki in test [1] of 280 nM.

Take `COc1cccc(-c2c(C)n(Cc3c(F)cccc3F)c(=O)n(CC(C)NCCCOCC(C)C)c2=O)c1` (centres undefined): the Ki in test [1] stood at 81 nM. On the same count and under the same terms, as for `COc1cccc(-c2c(C)n(Cc3c(F)cccc3F)c(=O)n(C[C@H](C)N)c2=O)c1`, the figure is 18000 nM; as for `COc1cccc(-c2c(C)n(Cc3c(F)cccc3F)c(=O)n(C[C@@H](C)NCCc3ccccn3)c2=O)c1`, 79 nM. On the same count and under the same terms, as for `COc1cccc(-c2c(C)n(Cc3c(F)cccc3F)c(=O)n(C[C@@H](C)N(C)Cc3ccccc3)c2=O)c1`, the figure is 330 nM; as for `COc1cccc(-c2c(C)n(Cc3c(F)cccc3F)c(=O)n(CCN(C)Cc3ccccn3)c2=O)c1`, 96 nM. The compound `COc1cccc(-c2c(C)n(Cc3c(F)cccc3F)c(=O)n(C[C@H](C)N(C)CCc3ccccn3)c2=O)c1` came in with a Ki in test [1] of 890 nM. Still for that read-out and setting: the same measure for `COc1cccc(-c2c(C)n(Cc3c(F)cccc3F)c(=O)n(C[C@H](C)NCCc3ccccn3)c2=O)c1`: 780 nM; for `COc1cccc(-c2c(C)n(Cc3c(F)cccc3F)c(=O)n(C[C@@H](C)N(C)CCc3ccccn3)c2=O)c1`: 5.2 nM; for `COc1cccc(-c2c(C)n(Cc3c(F)cccc3F)c(=O)n(C[C@@H](C)N)c2=O)c1`: 2500 nM. Broadly, the IC50 is the point on the concentration scale where inhibition reaches its midpoint. Read a high IC50 as weaker potency in that assay. In test [2], `COc1cccc(-c2c(C)n(Cc3c(F)cccc3F)c(=O)n(C[C@@H](C)N(C)Cc3ccccn3)c2=O)c1` displayed an IC50 of 2.5 nM. That is a single-digit nanomolar value.

Compound `COc1cccc(-c2c(C)n(Cc3c(F)cccc3F)c(=O)n(C[C@@H]3CCCN3Cc3ccccn3)c2=O)c1` registered a Ki in test [1] of 210 nM.

For `COc1cccc(-c2c(C)n(Cc3c(F)cccc3F)c(=O)n(C[C@H](C)NCc3ccccn3)c2=O)c1`, in test [1], the Ki worked out at 460 nM.
